Key:
human full length PDE3B = target: T1, human full length PDE3B (Homo sapiens, UniProt Q13370); experiment: PDE3B enzyme inhibition (3H-cAMP Scintillation Proximity Assay); format: biochemical; settings: PDE3B cell extract from Sf9 cells, 60 min room temperature; read-out: Target IC50 PDE3B IC50
T1 construct: Sf9 cells overexpressing human full length PDE3B; purchased SB Drug Discovery, UK; host or cells: Sf9 cells (cell extract)
Method: The commercially available 3H-cAMP Scintillation Proximity Assay (SPA, Perkin Elmer) system was used for enzyme inhibition studies. For the determination of the in vitro effect of test substances on the PDE3B reactions 2 μl of the respective test compound solution in DMSO (serial dilutions) were placed in wells of microtiter plates (Isoplate-96/200W; Perkin Elmer). 50 μl of a dilution of PDE3B cell extract from Sf9 cells overexpressing human full length PDE3B (SB Drug Discovery, UK) in buffer A (50 mM Tris/HCl pH 7.5, 8.3 mM MgCl2, 1.7 mM EDTA, 0.2% BSA) was added. The dilution of the PDE3B cell extract was chosen such that the reaction kinetics was linear and less than 70% of the substrate was consumed (typical dilution 1:6000). The reaction was started by addition of 50 μl (0.025 μCi) of 1:2000 in buffer A w/o BSA diluted substrate [8-3H] adenosine 3′,5′-cyclic phosphate (1 μCi/μl; Perkin Elmer). After incubation at room temperature for 60 min, the reaction was stopped by addition of 25 μl of a suspension containing 18 mg/ml yttrium scintillation proximity beads (Perkin Elmer) in water. The microtiter plates were sealed and measured in a Microbeta scintillation counter (PerkinElmer Wallac). IC50 values were determined from sigmoidal curves by plotting percentage PDE3B activity vs log compound concentration.

[1] = test system: HeLa cells (cervical cancer); experiment: Cell proliferation measurement (Cell Titer Glo), HeLa; format: cell-based; settings: Homo sapiens, 72 h treatment, read-out: Anti-proliferation IC50 HeLa (Cervical cancer)
Method: (§1) The antiproliferative activity of the compounds of the general formula (I) was examined in vitro in human cancer cells. For this purpose, 1000 cells (or 500 HeLa cells) were plated in 384-well plates with appropriate growth medium and incubated at 37° C. overnight. After 24 h, the cells on the test plate were treated with the compounds of the general formula (I) as and incubated at 37° C. for 72 h. The compounds were added to the cells by means of an HP D300 digital dispenser in a 10 (or more)-step dilution series. As control, the cells were treated with vehicle (DMSO at 0.3% final concentration). After 72 h, the cells were treated with 20 μl/well of 50% CTG solution in PBS (Promega Cell Titer Glo (catalogue #G755B and G756B)) and incubated at room temperature for 10 min, and luminescence was measured by means of a VICTOR V (Perkin Elmer), in order to determine cell viability at the end of treatment. The percentage effect on cell growth and the IC50 derived therefrom were determined for each test substance using the values from untreated wells (=percent viability). The IC50 values were calculated using a 4-parameter fit.

human full length PDE3A = target: T2, human full length PDE3A (Homo sapiens, UniProt Q14432); experiment: PDE3A enzyme inhibition (3H-cAMP Scintillation Proximity Assay); format: biochemical; settings: PDE3A cell extract from Sf9 cells, 60 min room temperature; read-out: Target IC50 PDE3A IC50
T2 construct: Sf9 cells overexpressing human full length PDE3A; purchased SB Drug Discovery, UK; host or cells: Sf9 cells (cell extract)
Method: The commercially available 3H-cAMP Scintillation Proximity Assay (SPA, Perkin Elmer) system was used for enzyme inhibition studies. For the determination of the in vitro effect of test substances on the PDE3A reactions 2 μl of the respective test compound solution in DMSO (serial dilutions) were is placed in wells of microtiter plates (Isoplate-96/200W; Perkin Elmer). 50 μl of a dilution of PDE3A cell extract from Sf9 cells overexpressing human full length PDE3A (SB Drug Discovery, UK) in buffer A (50 mM Tris/HCl pH 7.5, 8.3 mM MgCl2, 1.7 mM EDTA, 0.2% BSA) was added. The dilution of the PDE3A cell extract was chosen such that the reaction kinetics was linear and less than 70% of the substrate was consumed (typical dilution 1:5000). The reaction was started by addition of 50 μl (0.025 μCi) of 1:2000 in buffer A w/o BSA diluted substrate [8-3H] adenosine 3′,5′-cyclic phosphate (1 μCi/μl; Perkin Elmer). After incubation at room temperature for 60 min, the reaction was stopped by addition of 25 μl of a suspension containing 18 mg/ml yttrium scintillation proximity beads (Perkin Elmer) in water. The microtiter plates were sealed and measured in a Microbeta scintillation counter (PerkinElmer Wallac). IC50 values were determined from sigmoidal curves by plotting percentage PDE3A activity vs log compound concentration.

SK-MEL-3 (melanoma) = experiment: Cell proliferation measurement (Cell Titer Glo), SK-MEL-3; format: cell-based; settings: Homo sapiens, SK-MEL3, SK-MEL-3 cells, 72 h treatment, read-out: Anti-proliferation IC50 SK-MEL-3 (melanoma)
Method: as §1

T1 sequence (Q13370 whole entry): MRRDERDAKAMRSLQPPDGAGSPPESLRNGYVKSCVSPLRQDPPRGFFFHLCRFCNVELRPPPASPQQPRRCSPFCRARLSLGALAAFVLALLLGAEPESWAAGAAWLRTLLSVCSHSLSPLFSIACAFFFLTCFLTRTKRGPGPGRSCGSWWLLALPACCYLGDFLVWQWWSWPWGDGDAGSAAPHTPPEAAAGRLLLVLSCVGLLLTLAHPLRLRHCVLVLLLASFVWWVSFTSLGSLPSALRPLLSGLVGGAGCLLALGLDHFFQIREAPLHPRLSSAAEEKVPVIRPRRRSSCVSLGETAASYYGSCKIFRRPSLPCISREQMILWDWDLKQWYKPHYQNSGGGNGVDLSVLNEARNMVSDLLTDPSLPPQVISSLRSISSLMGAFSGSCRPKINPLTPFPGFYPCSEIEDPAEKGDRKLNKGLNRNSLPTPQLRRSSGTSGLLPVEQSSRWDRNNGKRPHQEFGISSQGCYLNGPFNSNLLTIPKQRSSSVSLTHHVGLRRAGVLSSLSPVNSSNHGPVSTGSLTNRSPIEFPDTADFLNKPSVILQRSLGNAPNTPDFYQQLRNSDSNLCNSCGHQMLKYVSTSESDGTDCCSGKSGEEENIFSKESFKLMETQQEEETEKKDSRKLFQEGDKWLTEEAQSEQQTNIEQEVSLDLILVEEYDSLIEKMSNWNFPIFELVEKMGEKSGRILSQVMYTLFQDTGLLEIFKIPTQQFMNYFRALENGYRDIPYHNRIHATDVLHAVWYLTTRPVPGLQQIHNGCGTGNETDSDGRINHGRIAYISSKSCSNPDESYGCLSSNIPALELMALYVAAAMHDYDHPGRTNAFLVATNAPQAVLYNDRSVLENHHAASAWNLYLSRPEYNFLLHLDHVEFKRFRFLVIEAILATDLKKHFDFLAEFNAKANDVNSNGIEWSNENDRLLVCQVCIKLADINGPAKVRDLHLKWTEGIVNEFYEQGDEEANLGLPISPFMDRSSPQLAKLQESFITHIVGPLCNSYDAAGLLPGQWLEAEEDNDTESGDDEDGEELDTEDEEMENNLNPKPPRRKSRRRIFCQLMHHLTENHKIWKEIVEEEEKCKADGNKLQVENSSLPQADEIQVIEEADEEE
T2 sequence (Q14432 whole entry): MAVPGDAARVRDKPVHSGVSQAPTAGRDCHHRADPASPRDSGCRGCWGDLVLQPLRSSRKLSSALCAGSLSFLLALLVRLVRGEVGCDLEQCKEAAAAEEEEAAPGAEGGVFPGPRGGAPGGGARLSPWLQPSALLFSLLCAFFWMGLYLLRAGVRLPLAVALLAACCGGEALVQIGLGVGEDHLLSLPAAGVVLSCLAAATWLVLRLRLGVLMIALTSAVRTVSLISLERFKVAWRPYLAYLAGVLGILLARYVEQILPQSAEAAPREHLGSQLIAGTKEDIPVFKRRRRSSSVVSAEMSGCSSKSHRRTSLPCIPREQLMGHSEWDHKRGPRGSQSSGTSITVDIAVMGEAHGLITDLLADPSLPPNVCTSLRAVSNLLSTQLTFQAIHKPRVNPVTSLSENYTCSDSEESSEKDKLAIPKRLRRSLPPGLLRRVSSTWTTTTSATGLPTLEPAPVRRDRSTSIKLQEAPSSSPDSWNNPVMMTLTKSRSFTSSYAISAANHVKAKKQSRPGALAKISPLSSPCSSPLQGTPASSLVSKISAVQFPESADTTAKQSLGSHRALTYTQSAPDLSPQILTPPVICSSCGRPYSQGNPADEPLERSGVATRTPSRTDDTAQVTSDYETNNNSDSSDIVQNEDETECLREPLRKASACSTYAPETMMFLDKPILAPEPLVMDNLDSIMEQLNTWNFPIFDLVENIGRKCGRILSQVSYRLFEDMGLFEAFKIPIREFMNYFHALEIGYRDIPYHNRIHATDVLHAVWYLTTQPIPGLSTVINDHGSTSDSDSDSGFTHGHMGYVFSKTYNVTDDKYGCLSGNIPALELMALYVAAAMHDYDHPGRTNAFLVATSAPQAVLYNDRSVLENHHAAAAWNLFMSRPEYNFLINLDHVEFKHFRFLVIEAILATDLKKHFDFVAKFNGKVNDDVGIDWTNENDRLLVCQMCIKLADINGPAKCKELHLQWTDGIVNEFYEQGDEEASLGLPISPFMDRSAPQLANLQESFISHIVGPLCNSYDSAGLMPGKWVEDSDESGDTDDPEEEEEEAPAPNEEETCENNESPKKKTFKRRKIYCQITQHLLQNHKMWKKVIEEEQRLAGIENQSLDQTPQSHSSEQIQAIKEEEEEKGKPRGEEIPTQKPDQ

| Structure (SMILES) | IC50 (human full length PDE3B) | IC50 [1] | IC50 (human full length PDE3A) | IC50 (SK-MEL-3 (melanoma)) |
| --- | --- | --- | --- | --- |
| O=C1CCC(c2ccc(-c3cncc(C(F)(F)F)c3)c(F)c2)=NN1 [Example 29, 6-{3-fluoro-4-[5-(trifluoromethyl)pyridin-3-yl]phenyl}-4,5-dihydropyridazin-3(2H)-one] | 110 nM | 86.4 nM | 160 nM | > 100 nM |
| Cc1ccc(-c2ccc(C3=NNC(=O)CC3)cc2F)cc1C [Example 35, 6-(2-fluoro-3′,4′-dimethyl[1,1′-biphenyl]-4-yl)-4,5-dihydropyridazin-3(2H)-one] | 690 nM | 63.6 nM | 820 nM | > 100 nM |
| C/C=C(\C)c1ccc(C2=NNC(=O)CC2)cc1F [Example 36, 6-{4-[(2E)-but-2-en-2-yl]-3-fluorophenyl}-4,5-dihydropyridazin-3(2H)-one] | 390 nM | 8.33 nM | 420 nM | 14.3 nM |
| Cc1ccc(-c2ccc(C3=NNC(=O)CC3)cc2F)c(F)c1 [Example 37, 6-(2,2′-difluoro-4′-methyl[1,1′-biphenyl]-4-yl)-4,5-dihydropyridazin-3(2H)-one] | 100 nM | 4 nM | 130 nM | 7.31 nM |
| O=C1CCC(c2ccc(-c3cc(F)c(F)cc3F)c(F)c2)=NN1 [Example 38, 6-(2,2′,4′,5′-tetrafluoro[1,1′-biphenyl]-4-yl)-4,5-dihydropyridazin-3(2H)-one] | 100 nM | 5.59 nM | 100 nM | 11.1 nM |
| O=C1CCC(c2ccc(-c3cncnc3)c(F)c2)=NN1 [Example 40, 6-[3-fluoro-4-(pyrimidin-5-yl)phenyl]-4,5-dihydropyridazin-3(2H)-one] | 140 nM | 37.5 nM | 140 nM | 47.6 nM |
| COc1ccc(OC)c(-c2ccc(C3=NNC(=O)CC3)cc2F)c1 [Example 41, 6-(2-fluoro-2′,5′-dimethoxy[1,1′-biphenyl]-4-yl)-4,5-dihydropyridazin-3(2H)-one] | 100 nM | 51.6 nM | 150 nM | 68.8 nM |
| Nc1ccc(F)cc1-c1ccc(C2=NNC(=O)CC2)cc1F [Example 43, 6-(2′-amino-2,5′-difluoro[1,1′-biphenyl]-4-yl)-4,5-dihydropyridazin-3(2H)-one] | 110 nM | 15.3 nM | 110 nM | 26.3 nM |
| O=C1CCC(c2ccc(-c3ccoc3)c(F)c2)=NN1 [Example 45, 6-[3-fluoro-4-(furan-3-yl)phenyl]-4,5-dihydropyridazin-3(2H)-one] | 310 nM | 10.4 nM | 370 nM | 13.7 nM |
| Cc1ccc(-c2ccc(C3=NNC(=O)CC3)cc2F)cc1N [Example 48, 6-(3′-amino-2-fluoro-4′-methyl[1,1′-biphenyl]-4-yl)-4,5-dihydropyridazin-3(2H)-one] | 260 nM | 13.1 nM | 230 nM | 20.9 nM |
| O=C1CCC(c2ccc(-c3ccccc3O)c(F)c2)=NN1 [Example 50, 6-(2-fluoro-2′-hydroxy[1,1′-biphenyl]-4-yl)-4,5-dihydropyridazin-3(2H)-one] | 130 nM | 2.83 nM | 130 nM | 4.03 nM |

Compounds with a lower IC50 (human full length PDE3B), results first:

| IC50 (human full length PDE3B) | IC50 [1] | IC50 (human full length PDE3A) | IC50 (SK-MEL-3 (melanoma)) | Structure (SMILES) |
| --- | --- | --- | --- | --- |
| 89 nM | 60.2 nM | 100 nM | > 100 nM | Nc1cc(-c2ccc(C3=NNC(=O)CC3)cc2F)ccn1 [Example 28, 6-[4-(2-aminopyridin-4-yl)-3-fluorophenyl]-4,5-dihydropyridazin-3(2H)-one] |
| 31 nM | 9.66 nM | 33 nM | 14.2 nM | O=C1CCC(c2ccc(-c3ccncc3)c(F)c2)=NN1 [Example 30, 6-[3-fluoro-4-(pyridin-4-yl)phenyl]-4,5-dihydropyridazin-3(2H)-one] |
| 93 nM | 34.4 nM | 160 nM | 47.3 nM | Cc1ncc(-c2ccc(C3=NNC(=O)CC3)cc2F)cn1 [Example 31, 6-[3-fluoro-4-(2-methylpyrimidin-5-yl)phenyl]-4,5-dihydropyridazin-3(2H)-one] |
| 36 nM | 59.9 nM | 64 nM | 64.7 nM | COc1cc(-c2ccc(C3=NNC(=O)CC3)cc2F)ccn1 [Example 32, 6-[3-fluoro-4-(2-methoxypyridin-4-yl)phenyl]-4,5-dihydropyridazin-3(2H)-one] |
| 67 nM | 14.4 nM | 66 nM | 24.8 nM | Cc1ncccc1-c1ccc(C2=NNC(=O)CC2)cc1F [Example 33, 6-[3-fluoro-4-(2-methylpyridin-3-yl)phenyl]-4,5-dihydropyridazin-3(2H)-one] |
| 50 nM | 7.23 nM | 57 nM | 9.88 nM | Cc1ccc(-c2ccc(C3=NNC(=O)CC3)cc2F)cn1 [Example 34, 6-[3-fluoro-4-(6-methylpyridin-3-yl)phenyl]-4,5-dihydropyridazin-3(2H)-one] |
| 80 nM | 5.25 nM | 82 nM | 8.4 nM | O=C1CCC(c2ccc(-c3ccc(F)c(F)c3F)c(F)c2)=NN1 [Example 39, 6-(2,2′,3′,4′-tetrafluoro[1,1′-biphenyl]-4-yl)-4,5-dihydropyridazin-3(2H)-one] |
| 68 nM | 5.23 nM | 80 nM | 8.4 nM | O=C1CCC(c2ccc(-c3cc(F)ccc3F)c(F)c2)=NN1 [Example 42, 6-(2,2′,5′-trifluoro[1,1′-biphenyl]-4-yl)-4,5-dihydropyridazin-3(2H)-one] |
| 95 nM | 17.9 nM | 180 nM | 34.5 nM | O=C1CCC(c2ccc(-c3ccccc3OC(F)(F)F)c(F)c2)=NN1 [Example 44, 6-[2-fluoro-2′-(trifluoromethoxy)[1,1′-biphenyl]-4-yl]-4,5-dihydropyridazin-3(2H)-one] |
| 37 nM | 9.65 nM | 61 nM | 12.7 nM | N#Cc1ccc(-c2ccc(C3=NNC(=O)CC3)cc2F)cc1 [Example 46, 2′-fluoro-4′-(6-oxo-1,4,5,6-tetrahydropyridazin-3-yl)[1,1′-biphenyl]-4-carbonitrile] |
| 96 nM | 13.7 nM | 95 nM | 19.3 nM | N#Cc1cccc(-c2ccc(C3=NNC(=O)CC3)cc2F)c1 [Example 47, 2′-fluoro-4′-(6-oxo-1,4,5,6-tetrahydropyridazin-3-yl)[1,1′-biphenyl]-3-carbonitrile] |
| 41 nM | 40.6 nM | 63 nM | 8.88 nM | O=C1CCC(c2ccc(-c3cccc(O)c3)c(F)c2)=NN1 [Example 49, 6-(2-fluoro-3′-hydroxy[1,1′-biphenyl]-4-yl)-4,5-dihydropyridazin-3(2H)-one] |

Source: patent US11897867B2, “6-phenyl-4,5-dihydropyridazin-3(2H)-one derivatives as PDE3A and PDE3B inhibitors for treating cancer” (Bayer Aktiengesellschaft, priority 2017, dated 2024)
